Literature values as cited in article PMC6257630, “Photoactivatable Cell-Selective Dinuclear trans-Diazidoplatinum(IV) Anticancer Prodrugs” (Inorganic Chemistry, 2018).

Test system: cisplatin-resistant A2780cis cells
Design: method as in PMID 20677309
Conditions: irradiation with UVA (365 nm); cited from earlier work

Which IC50 does the source give for “trans,trans,trans-[Pt(N3)2(OH)2(py)2] [FM-190]” here?
The IC50 was 14.5 µM.
